Reference: ChEMBL document CHEMBL6153027, “Recent report on indoles as a privileged anti-viral scaffold in drug discovery” (Eur J Med Chem, 2025)
In brackets after ≈: the same amount, converted by molar mass.

Assays:
[1] = Cytotoxicity against African green monkey Vero E6 cells assessed as reduction in cell viability measured for 3 days by CCK-8 assay; format: toxicity, cell-based; details: chlorocebus sabaeus, Vero E6 cells (Vero C1008); time 3 day
[2] = Inhibition of Influenza A virus H5N1 neuraminidase
[3] = test system: Human immunodeficiency virus 1; test: Antiviral activity against wild type HIV-1 NL4-3 infected in human MT4 cells assessed as reduction in viral replication; format: functional, organism-based; details: Human immunodeficiency virus 1, NL4-3, MT4
Sindbis virus = test: Antiviral activity against Sindbis virus infected in African green monkey Vero cells assessed as reduction in virus induced cytopathic effect; format: functional, organism-based
Zika virus = test: Antiviral activity against Zika virus infected in African green monkey Vero cells assessed as reduction in virus induced cell death; format: functional, organism-based
SARS-CoV-2 [4] = format: functional, organism-based; details: Severe acute respiratory syndrome coronavirus 2, Wuhan-Hu-1, Vero C1008
[5] = target: T1, Human immunodeficiency virus type 1 integrase (Human immunodeficiency virus 1, UniProt Q7ZJM1); test: Inhibition of HIV-1 integrase
[6] = test system: Human immunodeficiency virus 1; test: Antiviral activity against HIV-1 infected in human MT4 cells assessed as reduction in viral replication; format: functional, organism-based; details: Human immunodeficiency virus 1, MT4
[7] = Inhibition of Influenza A virus A/California/04/2009 (H1N1) domain of PA endonuclease expressed in Escherichia coli BL21 (DE3) cells
Influenza A virus = test: Antiviral activity against Influenza virus […] (A/California/07/2009 pdm09) infected in human Calu-3 cells assessed as viral RNA measured after 3 days by RT-PCR assay; format: functional, organism-based; details: Calu-3, 72 h
SARS-CoV-2 [8] = format: functional, organism-based; details: Severe acute respiratory syndrome coronavirus 2, Wuhan-Hu-1, Vero C1008; remark: listed apart in the source
[9] = test system: Respiratory syncytial virus; test: Antiviral activity against RSV-A2 infected in human HEp-2 cells incubated for 4 days by Cell Titer Glo assay; format: functional, organism-based; details: A2, HEp-2, 96 h
Potato virus Y = test: Antiviral activity against Potato Virus Y; format: functional, organism-based
[10] = Inhibition of N-terminal SARS-CoV-2 Main protease using ESATLQSGLRKAK-QXL-NH2 as substrate incubated for 60 mins by FRET assay; design: species or system Severe acute respiratory syndrome coronavirus 2
SARS-CoV-2 [11] = format: functional, organism-based, Vero E6; details: Severe acute respiratory syndrome coronavirus 2, Vero C1008, 48 h
[12] = test system: Venezuelan equine encephalitis virus; test: Antiviral activity against VEEV TC-83 infected in human U-87 MG cells assessed as reduction in viral replication; format: functional, organism-based; details: TC-83, U-87 MG
SARS-CoV-2 [13] = format: functional, organism-based, Vero E6; details: Severe acute respiratory syndrome coronavirus 2, Vero C1008, 48 h; remark: listed apart in the source
[14] = test system: Respiratory syncytial virus; test: Antiviral activity against RSV-A infected in human A549 cells at 0.01 MOI assessed as inhibition of virus induced cytopathic effect […] by MTT assay; format: functional, organism-based
[15] = test system: Human immunodeficiency virus 1; test: Antiviral activity against HIV-1 IIIB infected in human C8166 cells assessed as reduction in viral replication; format: functional, organism-based; details: Human immunodeficiency virus 1, IIIB
[16] = target: T1, Human immunodeficiency virus type 1 integrase; test: Inhibition of recombinant HIV-1 integrase by strand transfer activity
Tobacco mosaic virus = test: Antiviral activity against Tobacco mosaic virus; format: functional, organism-based
[17] = test system: Vesicular stomatitis virus; test: Antiviral activity against Vesicular stomatitis virus; format: functional, organism-based
[18] = test system: Respiratory syncytial virus; test: Antiviral activity against Respiratory syncytial virus; format: functional, organism-based; details: human respiratory syncytial virus
SARS-CoV-2 [19] = format: functional, organism-based, Vero E6; details: Severe acute respiratory syndrome coronavirus 2, Vero C1008
C8166 = test: Cytotoxicity against human C8166 cells assessed as reduction in cell viability incubated for 3 days by MTT assay; format: functional; details: C8166, 72 h, time 3 day
Human respirovirus 1 = test: Antiviral activity against Human parainfluenza virus 1 infected in Vero cells assessed as reduction in viral replication at 10 ug/ml relative to control; format: functional; design: scale not given: the % may be the effect or the level left; details: dose 10 µg/ml
[20] = Inhibition of Zika virus NS5 RNA dependent RNA polymerase
[21] = Cytotoxicity against African green monkey Vero cells assessed as reduction in cell viability measured after 72 hrs by MTT assay; format: toxicity, cell-based; details: chlorocebus sabaeus
[22] = Toxicity in African green monkey Vero cells assessed as reduction in cell viability incubated for 3 days by MTT assay; format: cell-based; details: chlorocebus sabaeus, time 3 day, read-out: TC50
Human alphaherpesvirus 2 = test: Antiviral activity against HSV-2 infected in African green monkey Vero cells assessed as reduction in virus-induced cytopathic effect incubated for 3 days by MTT assay; format: functional, organism-based; details: Human alphaherpesvirus 2, Vero, 72 h

T1 sequence (Q7ZJM1 whole entry): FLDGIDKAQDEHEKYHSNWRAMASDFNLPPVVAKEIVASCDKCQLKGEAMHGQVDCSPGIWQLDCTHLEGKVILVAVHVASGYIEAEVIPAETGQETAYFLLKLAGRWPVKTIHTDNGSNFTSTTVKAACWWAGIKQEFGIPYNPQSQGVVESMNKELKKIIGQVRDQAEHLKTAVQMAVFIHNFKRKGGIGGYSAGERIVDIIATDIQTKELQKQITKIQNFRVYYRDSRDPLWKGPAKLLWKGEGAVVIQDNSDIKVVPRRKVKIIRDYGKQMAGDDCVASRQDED

Compound COc1cccc2[nH]c(C(=O)N[C@@H](CC(C)C)C(=O)N[C@@H](C[C@@H]3CCNC3=O)C(=O)c3nc4ccccc4s3)cc12 has a CC50 at 72 h [1] greater than 100 µM.
With CC1=NCCc2c1[nH]c1ccccc21 the IC50 [2] was 0.023 µg/mL (≈ 0.125 µM).
In the case of COP(=O)(c1cc(C)cc(OCC#N)c1)c1c(C(N)=O)[nH]c2ccc(Cl)cc12 (configuration not stated), the EC50 [3] is reported as 0.08 nM.
NS(=O)(=O)c1ccc(NC(=S)N/N=C2\C(=O)Nc3ccc(Br)cc32)cc1 gave an EC50 (Sindbis virus) of 3 µM.
In the case of NS(=O)(=O)c1ccc(NC(=S)N/N=C2\C(=O)Nc3ccc(OC(F)(F)F)cc32)cc1, the EC50 (Sindbis virus) is reported as 2 µM.
Work on O=C(NCC1CCNCC1)c1cc2ccc(-c3ccoc3)cc2[nH]1 yielded an IC50 (Zika virus) of 0.37 µM.
With O=C1C[C@@H]2OCC=C3CN4CC[C@]56c7ccccc7N1[C@H]5[C@H]2[C@H]3C[C@H]46.O=S(=O)(O)O the IC50 [2] was 11.85 µg/mL.
Work on O=C(NCC1CCNCC1)c1c[nH]c2cc(-c3ccoc3)c(-c3ccoc3)cc12 yielded an IC50 (SARS-CoV-2 [4]) of 3.8 µM.
With O=C(Oc1cncc(Cl)c1)c1cccc2c1CCN2 the CC50 at 72 h [1] was greater than 100 µM.
For O=C1c2c(ccc(O)c2O)CN1Cc1ccc(O)cc1, the IC50 [5] was 0.0075 µM, the EC50 [6] was roughly 4 µM and the IC50 [7] was 0.0075 µM. It also gave an EC50 (Influenza A virus) of roughly 4 µM.
Compound O=C1C(=O)N(Cc2cccc3ccccc23)c2ccc(Br)cc21 has an EC50 (SARS-CoV-2 [8]) of 6.8 µM and an EC50 [9] of 6.8 µM.
In the case of C#CCCn1ccc2c(C3=N[C@@H](C(C)C)CO3)cccc21, the EC50 (Potato virus Y) is reported as 256 µg/mL (≈ 913 µM).
Compound CCCCCCCCCCCCCCCCCc1nnc(SCCO)n1/N=C/c1cn(Cc2ccccc2)c2ccccc12 has an IC50 [10] of 8.7 µM and an IC50 (SARS-CoV-2 [11]) of 87.6 µM.
Cc1cncc(C#Cc2c[nH]c3ncc(-c4ccc(C(=O)NC5CC5)cc4)cc23)c1 gave an EC50 [12] of 1.8 µM, an EC50 (SARS-CoV-2 [13]) of 1.82 µM and an EC50 [14] of 0.18 µM.
CCc1ccc(S(=O)(=O)n2cc(C(=O)CN3CCOCC3)c3ccc(C)cc32)cc1 showed an EC50 [15] of 9.42 µM.
With O=C(O)/C(O)=C/C(=O)c1cn(S(=O)(=O)C(=O)c2ccc(F)cc2)c2ccc(Br)cc12 the IC50 [16] was 0.2 µM.
With CCCCCCCCCCCCCCCCCc1nnc(SCC(O)CO)n1/N=C/c1cn(Cc2ccccc2)c2ccccc12 (configuration not stated) the IC50 [10] was 8.93 µM and the IC50 (SARS-CoV-2 [11]) was 112 µM.
Work on CN1C(=O)/C(=N\NC(=S)Nc2ccc(S(N)(=O)=O)cc2)c2cc(OC(F)(F)F)ccc21 yielded an EC50 (Sindbis virus) greater than 20 µM.
Work on CCOC(=O)c1c(C)n(C)c2ccc(OCCCOc3ccc(C(=O)/C=C/c4ccc(C)cc4)cc3)cc12 yielded an EC50 (Tobacco mosaic virus) of 107 µg/mL (≈ 210 µM).
Cc1ccc2c(c1)C(=O)C(=O)N2Cc1ccc2ccccc2c1 gave an EC50 [17] of 6.8 µM and an EC50 [18] of 6.8 µM.
CCS(=O)(=O)N(c1ccc(C(=O)/C=C2/C(=O)Nc3ccccc32)cc1)S(=O)(=O)CC showed an IC50 (SARS-CoV-2 [19]) of 3.42 µM.
O=C(NCCc1ccc(N2CCCC2)cc1)c1[nH]c2ccc(Cl)cc2c1CO showed an IC50 (SARS-CoV-2 [4]) of 3.42 µM.
In the case of CS(=O)(=O)Oc1ccc(C(=O)/C=C2/C(=O)Nc3ccccc32)cc1, the IC50 (SARS-CoV-2 [19]) is reported as 3.8 µM.
O=C1C(=O)N(Cc2ccc3ccccc3c2)c2ccccc21 gave an IC50 (Zika virus) of 0.32 µM.
Compound O=C(NN1C(=O)CSC12CCCCC2)c1[nH]c2ccc(Cl)cc2c1-c1ccccc1 has an EC50 (Sindbis virus) of 1.9 µM.
Work on CN1C(=O)/C(=N\NC(=S)Nc2ccc(S(N)(=O)=O)cc2)c2cc(F)ccc21 yielded an EC50 (Sindbis virus) greater than 4 µM.
In the case of CCc1ccc(S(=O)(=O)n2cc(C(=O)CCc3nnc(-c4ccccc4)o3)c3ccc(C)cc32)cc1, the CC50 (C8166) is reported as greater than 469 µM and the EC50 [15] is reported as 4.62 µM.
Compound O=C(NCCc1ccc(N2CCOCC2)cc1)c1[nH]c2ccc(Cl)cc2c1CO has an IC50 (SARS-CoV-2 [11]) of 4.2 µM.
In the case of Cc1ccc(S(=O)(=O)n2cc(C(=O)/C=C3\OC(C)(C)OC3=O)c3cc(Br)ccc32)cc1, the IC50 [16] is reported as 5.7 µM.
CC1CCCC2(C1)SCCN2NC(=O)c1[nH]c2ccc(S(N)(=O)=O)cc2c1-c1ccccc1 (configuration not stated) showed an Activity (Human respirovirus 1) of 95.46%.
In the case of CN1C(=O)/C(=N\NC(=S)Nc2ccc(S(N)(=O)=O)cc2)c2cc(Br)ccc21, the EC50 (Sindbis virus) is reported as greater than 2 µM.
O=C1C2Cc3ccccc3N2[C@@H](c2ccc(O)c(O)c2)N1Nc1ccc([N+](=O)[O-])cc1 (some centres not stated) gave an IC50 [20] of 8.52 µM and a CC50 at 72 h [21] greater than 100 µM.
Work on CCOc1ccc(C2=NN(C(N)=S)C(C3CN(Cc4ccc(C(F)(F)F)cc4)c4ccccc43)C2)cc1F (configuration not stated) yielded an EC50 (Potato virus Y) of 202 µg/mL (≈ 372 µM).
With COc1ccc([C@H]2N(Nc3ccc([N+](=O)[O-])cc3)C(=O)C3Cc4ccccc4N32)cc1O[Si](C)(C)C(C)(C)C (mixture of isomers) the IC50 [20] was 9.89 µM and the CC50 at 72 h [21] was greater than 100 µM.
In the case of COc1ccc([C@H]2N(Nc3ccccc3)C(=O)C3Cc4ccccc4N32)cc1O[Si](C)(C)C(C)(C)C (mixture of isomers), the IC50 [20] is reported as 10.7 µM and the CC50 at 72 h [21] is reported as greater than 100 µM.
Work on COc1ccc2c3c([nH]c2c1)C(C)=NCC3 [HARMALINE] yielded an IC50 [2] of 3.42 µg/mL (≈ 16 µM).
CC1=NCCc2c1[nH]c1cc(O)ccc21 [HARMALOL] showed an IC50 [2] of 0.02 µg/mL (≈ 0.0999 µM).
Work on CCOC(=O)c1c(CSc2ccccc2)n(C)c2cc(Br)c(O)c(CN(C)C)c12 [UMIFENOVIR] yielded a CC50 at 72 h [22] of 32.3 µg/mL (≈ 67.7 µM) and an IC50 (Human alphaherpesvirus 2) of 4.77 µg/mL (≈ 9.99 µM).
